Experimental data reported in US20260337125A1, “RADIOLABELED TYROSINE DERIVATIVE AND APPLICATION THEREOF” (Osaka University, priority 2022, published 2026).

Legend:
[1] = TLC analysis of stability after purification; format: physicochemical; conditions: 24 hours after purification, in sodium ascorbate aqueous solution (final concentration 1%)
Method: The crude product solution (1 μL) was analyzed by thin-layer chromatography (TLC). The sample was spotted on a thin-layer plate (silica gel 60F254), and a mixed solvent of acetonitrile/water (2/1) was used as a developing solvent. The thin-layer plate was exposed to an imaging plate (BAS IP MS 2025E, GE Healthcare) for about 15 min, and then analyzed by a bioimage analyzer (Tyhoon™ FLA-7000, Cytiva). The results are shown in FIG. 2. ^211At-AAMT-OMe in the crude product solution was detected at Rf 0.80, and the radiochemical yield (RCY) was 81.3%.
(§1) The crude product solution was injected into an HLB column (Oasis, WAT-186005125) equilibrated with sterile distilled water (1 mL) to capture the target product in the cartridge, and sterile distilled water was passed through the cartridge to elute impurities. Next, 30% ethanol solution (500 μL) was passed through the cartridge to elute the target product into sodium ascorbate aqueous solution (500 μL, final concentration 1%), thus obtaining the purified product. The radiochemical yield and radiochemical purity of the purified product were 81% and 98%, respectively.
Before purification, immediately after production, 3 hours after production, and 24 hours after production, ^211At-AAMT-OMe was analyzed by thin-layer chromatography (TLC) in the same manner as described above.
as §1, with “product. This purified product was analyzed by thin-layer chromatography (TLC) in the same manner as described above.” for “product.”, “79.6%” for “81%”, “99.9%,” for “98%,”
24 hours after production, (R)-^211At-AAMT-OMe was analyzed by thin-layer chromatography (TLC) in the same manner as described above.
as §1, with “product. This purified product was analyzed by thin-layer chromatography (TLC) in the same manner as described above.” for “product.”, “75.9%” for “81%”, “99.27%,” for “98%,”
24 hours after production, ^211At-AAMT-OEt was analyzed by thin-layer chromatography (TLC) in the same manner as described above.
The crude product solution was injected into an HLB column (Oasis, WAT-186005125) equilibrated with sterile distilled water (1 mL) to capture the target product in the cartridge, and sterile distilled water was passed through the cartridge to elute impurities. […] This purified product was analyzed by thin-layer chromatography (TLC) in the same manner as described above. […]
24 hours after production, ^211At-AAMT-OPr was analyzed by thin-layer chromatography (TLC) in the same manner as described above. […]

[2] = target: HEK293-hLAT1 (Homo sapiens, UniProt Q01650); test: Cellular uptake test (Using HEK293); format: cell-based; conditions: inhibitor added 15 minutes before; BCH 20 mM or unlabeled AMT 1 μg/mL
HEK293-hLAT1, sequence (Q01650 whole entry): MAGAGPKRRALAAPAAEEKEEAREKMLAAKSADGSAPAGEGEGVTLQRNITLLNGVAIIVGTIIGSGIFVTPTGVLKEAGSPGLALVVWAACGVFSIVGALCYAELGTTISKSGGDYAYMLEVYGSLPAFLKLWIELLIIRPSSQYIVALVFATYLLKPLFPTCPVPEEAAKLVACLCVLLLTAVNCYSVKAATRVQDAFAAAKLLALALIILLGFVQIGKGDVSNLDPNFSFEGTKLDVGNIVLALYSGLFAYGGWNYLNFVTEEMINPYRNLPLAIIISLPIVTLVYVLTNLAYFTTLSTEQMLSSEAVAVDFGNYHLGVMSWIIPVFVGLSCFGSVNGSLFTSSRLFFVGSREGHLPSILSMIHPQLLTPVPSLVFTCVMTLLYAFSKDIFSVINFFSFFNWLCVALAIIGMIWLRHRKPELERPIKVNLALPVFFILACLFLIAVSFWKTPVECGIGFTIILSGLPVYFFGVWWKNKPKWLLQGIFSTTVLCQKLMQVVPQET
HEK293-hLAT1, sequence (P08195 102-630 partner): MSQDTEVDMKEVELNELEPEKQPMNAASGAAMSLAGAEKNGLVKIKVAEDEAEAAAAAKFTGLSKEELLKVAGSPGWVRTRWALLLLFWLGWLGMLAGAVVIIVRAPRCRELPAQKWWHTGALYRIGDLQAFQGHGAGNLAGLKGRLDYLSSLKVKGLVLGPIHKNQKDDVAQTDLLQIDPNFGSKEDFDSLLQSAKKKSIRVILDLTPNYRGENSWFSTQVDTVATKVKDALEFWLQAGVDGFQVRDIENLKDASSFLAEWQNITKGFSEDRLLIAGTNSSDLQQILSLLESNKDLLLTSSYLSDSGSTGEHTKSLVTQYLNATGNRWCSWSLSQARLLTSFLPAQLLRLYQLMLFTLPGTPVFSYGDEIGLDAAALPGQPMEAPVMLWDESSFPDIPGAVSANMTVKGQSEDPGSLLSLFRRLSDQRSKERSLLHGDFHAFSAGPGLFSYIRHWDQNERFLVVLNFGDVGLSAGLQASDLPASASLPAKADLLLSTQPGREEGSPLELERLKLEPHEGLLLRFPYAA
Method: • Cells to be Used: HEK293-Mock, HEK293-hLAT1, HEK293-hLAT2 (HEK293: Human Embryonic Kidney cells 293) • Culture medium to be used: E-MEM (containing 10% FBS, 1% P/S, 1% NEAA)
(§2) Two days before a test day, a cell suspension was prepared in such a manner that the concentration of predetermined cells was 1×10^5 cells/mL. The cell suspension was seeded in a 24-well multiculture plate at a volume of 0.5 mL per well. On the day of the test, cultures were confirmed to be subconfluent (which refers to a state where 70-80% of the well is covered in density). The cells were washed twice with warmed PBS(-) Buffer (166-23555, FUJIFILM Wako Pure Chemical Corporation), the culture medium was replaced with HBSS(-) Buffer (085-09355, FUJIFILM Wako Pure Chemical Corporation), and the plate was left to stand in an incubator (MINIcell-35, WakenBtech Co., Ltd) until an RI addition test.
(§3) ^211At-AAMT-OMe or ^211At-AAMT was added to the prepared cells at 10 μL/well. BCH (LAT1 inhibitor, 20 mM) or unlabeled AMT (α-methyl tyrosine, 1 μg/mL) was previously (15 minutes before) added ([…]). The cells were cultured (CO2 5%, 37 °C), and after 30 minutes, the liquid was removed by suction using an aspirator. The cells were washed twice with PBS(-). The cells were lysed by adding 0.1N NaOH to obtain a lysate, and the radioactivity of the lysate was measured using a γ counter. After the radioactivity measurement, the lysate was loaded into a 96-well plate at a volume of 10 μL per well, the protein amount was measured by the BCA method, and the number of cells was corrected based on the protein amount. Absorbance was measured by MultiScanFC (Thermo Fisher). The uptake level of ^211At-AAMT-OMe or ^211At-AAMT into the cells (number of radioactivity counts/protein amount) was calculated.

[3] = tested on: CDDP-resistant A549 (A549 CDDP-r); test: Cell viability of CDDP-resistant A549 (A549 CDDP-r) with CDDP; format: cell-based, human; conditions: CDDP 100 μg/mL
Method: Cisplatin (CDDP) was added to a human lung cancer cell line, A549 at an initial concentration of 1 μg/mL. After 3 days, dead cells were removed, and CDDP was again added. Cells that grew like A549 even in the presence of CDDP were isolated and maintained for 3 months while gradually increasing the concentration of CDDP in a culture medium.

[4] = tested on: PANC1 tumor; test: Measurement of accumulated amounts of 211At-labeled compounds in PANC1 tumor-bearing mice; format: in vivo, human (PANC1) in Balb/c-nu/nu mice; conditions: for accumulation in the tumor sites compared to 211At-AAMT: 10 minutes and 1 hour after administration, tail vein; for retention at tumor sites: compared to 211At-AAMT
Method: (§4) Radiation doses before and after the administration were measured, and a difference between them was defined as an injected dose (ID). Ten minutes and one hour after administration, the mice were anesthetized by isoflurane inhalation, the tumors were isolated by autopsy in chronological order, and their radiation doses and weights were measured using a gamma counter (2480 Wizard^2, PerkinElmer) and a semimicro scale (Shimadzu Corporation, readability 10 μg), respectively. For comparison between accumulated amounts, accumulated amounts per unit amount (% ID/g) were calculated.
(§5) In Table 1, the amounts of the ^211At-labeled compounds accumulated in tumors of the PANC1 tumor-bearing models (% ID/g) are shown. It should be noted that in Table 1, “OMe” is ^211At-AAMT-OMe, “OEt” is ^211At-AAMT-OEt, “OPr” is ^211At-AAMT-OPr, and “OH” is ^211At-AAMT.

[5] = as above; format: in vivo, human (PANC1) in Balb/c-nu/nu mice; conditions: tumor, iv, 0.1 MBq/animal, 0.1 MBq/0.2 mL per mouse, tail vein, read-out: tumor accumulation; for tissue uptake at 10 min: 10 minutes after administration; for tissue uptake at 1 h: 1 hour after administration
Method: as §4, §5

[6] = tested on: PANC1; test: Cellular uptake test (Using PANC1); format: cell-based, human; conditions: for uptake speed: PANC1 cells, uptake level immediately after addition
Method: • Cells to be used: PANC1 • Culture medium to be used: D-MEM (containing 10% FBS, 1% P/S)
as §2, with “cells/mL in the same manner as in Test Example 1.” for “cells/mL.”
as §3, with “^211At-AAMT-OMe, ^211At-AAMT-OEt, ^211At-AAMT-OPr, or” for “^211At-AAMT-OMe or”, “of ^211At-AAMT-OMe, ^211At-AAMT-OEt, ^211-At-AAMT-OPr,” for “of ^211At-AAMT-OMe”

[7] = tested on: human pancreatic cancer cell line (PANC1); format: in vivo, human (PANC1) in Balb/c-nu/nu mice; conditions: 1 MBq/0.2 mL per mouse, tail vein
Source text: The experiment was terminated 21 days after administration.

[8] = up to 21 days after administration

COc1ccc(C[C@@](C)(N)C(=O)O)cc1[At] [(R)-^211At-AAMT-OMe, (R)-3-astato(^211At)—O-methyl-α-methyltyrosine]
decomposition by TLC [1]: no decomposition

C[C@](N)(Cc1ccc(O)cc1)C(=O)O [AMT, α-methyl tyrosine, reference compound]
inhibition of uptake of 211At-AAMT-OMe into HEK293-hLAT1 cells [2]: significantly inhibited

NC1(C(=O)O)CC2CCC1C2 (stereo not drawn) [BCH, 2-aminobicyclo[2,2,1]heptane-2-carboxylic acid, reference compound]
inhibition of uptake of 211At-AAMT-OMe into HEK293-hLAT1 cells [2]: significantly inhibited

[NH2][Pt]([NH2])([Cl])[Cl] [CDDP, Cisplatin]
cell viability [3]: still alive even at 100 μg/mL

COc1cc(C[C@](C)(N)C(=O)O)ccc1[At] [^211At-AAMPhe-OMe, (S)-α-methyl-4-astato(^211At)-3-methoxyphenylalanine]
accumulation in the tumor sites compared to 211At-AAMT [4]: more highly accumulated in the tumor sites than ^211At-AAMT
tissue uptake at 10 min [5]: 3.77 %ID/g
tissue uptake at 1 h [5]: 6.38 %ID/g
decomposition by TLC [1]: no decomposition

CCOc1ccc(C[C@](C)(N)C(=O)O)cc1[At] [^211At-AAMT-OEt, (S)-3-astato(^211At)—O-ethyl-α-methyltyrosine]
uptake level into cells (number of radioactivity counts/protein amount) [6]: comparable or superior
uptake speed [6]: comparable or superior
apparent toxicity ([7]; 21 days): apparent toxicity induced by their administration was not observed
lesions other than tumor at autopsy ([7]; 21 days): lesions other than tumor were not observed
mouse body weight [7, 8]: gently increased
tumor growth inhibiting effect [7, 8]: comparable to that of the ^211At-AAMT-OMe administration group
accumulation in the tumor sites compared to 211At-AAMT [4]: more highly accumulated in the tumor sites than ^211At-AAMT
retention at tumor sites [4]: superior retention at tumor sites compared to ^211At-AAMT
tissue uptake at 10 min [5]: 4.21 %ID/g
tissue uptake at 1 h [5]: 3.59 %ID/g
decomposition by TLC [1]: no decomposition

CCCOc1ccc(C[C@](C)(N)C(=O)O)cc1[At] [^211At-AAMT-OPr, (S)-3-astato(^211At)—O-propyl-α-methyltyrosine]
uptake level into cells (number of radioactivity counts/protein amount) [6]: comparable or superior
uptake speed [6]: comparable or superior
accumulation in the tumor sites compared to 211At-AAMT [4]: more highly accumulated in the tumor sites than ^211At-AAMT
tumor accumulation, ranking ([4]; 1 hour after administration): most highly accumulated 1 hour after administration
retention at tumor sites [4]: superior retention at tumor sites compared to ^211At-AAMT
tissue uptake at 10 min [5]: 5.91 %ID/g
tissue uptake at 1 h [5]: 9.45 %ID/g
decomposition by TLC [1]: no decomposition
